Molecular target: T1, recombinant guanylate cyclase reporter cell line (Rattus norvegicus, UniProt P19686+P20595)
T1 construct: expressed in transfected cells
T1 sequence (P19686 1-690): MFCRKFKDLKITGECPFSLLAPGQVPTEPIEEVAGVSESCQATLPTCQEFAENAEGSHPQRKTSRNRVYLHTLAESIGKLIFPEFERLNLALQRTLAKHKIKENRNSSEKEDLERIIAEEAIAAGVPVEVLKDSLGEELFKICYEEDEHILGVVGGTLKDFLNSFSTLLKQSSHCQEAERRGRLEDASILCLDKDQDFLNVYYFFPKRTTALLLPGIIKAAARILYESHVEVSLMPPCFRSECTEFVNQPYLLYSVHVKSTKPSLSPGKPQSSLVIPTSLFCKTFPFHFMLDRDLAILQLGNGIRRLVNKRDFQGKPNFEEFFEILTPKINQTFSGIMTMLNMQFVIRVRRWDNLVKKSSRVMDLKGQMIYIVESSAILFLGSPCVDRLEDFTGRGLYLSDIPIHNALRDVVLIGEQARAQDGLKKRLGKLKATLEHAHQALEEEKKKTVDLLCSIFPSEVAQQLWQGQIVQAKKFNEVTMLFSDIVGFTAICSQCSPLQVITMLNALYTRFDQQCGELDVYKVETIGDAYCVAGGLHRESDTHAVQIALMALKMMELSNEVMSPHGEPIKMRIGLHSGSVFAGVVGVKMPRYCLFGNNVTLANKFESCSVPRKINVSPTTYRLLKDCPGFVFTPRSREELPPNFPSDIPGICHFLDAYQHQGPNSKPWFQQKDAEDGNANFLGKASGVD
T1 sequence (P20595 1-619): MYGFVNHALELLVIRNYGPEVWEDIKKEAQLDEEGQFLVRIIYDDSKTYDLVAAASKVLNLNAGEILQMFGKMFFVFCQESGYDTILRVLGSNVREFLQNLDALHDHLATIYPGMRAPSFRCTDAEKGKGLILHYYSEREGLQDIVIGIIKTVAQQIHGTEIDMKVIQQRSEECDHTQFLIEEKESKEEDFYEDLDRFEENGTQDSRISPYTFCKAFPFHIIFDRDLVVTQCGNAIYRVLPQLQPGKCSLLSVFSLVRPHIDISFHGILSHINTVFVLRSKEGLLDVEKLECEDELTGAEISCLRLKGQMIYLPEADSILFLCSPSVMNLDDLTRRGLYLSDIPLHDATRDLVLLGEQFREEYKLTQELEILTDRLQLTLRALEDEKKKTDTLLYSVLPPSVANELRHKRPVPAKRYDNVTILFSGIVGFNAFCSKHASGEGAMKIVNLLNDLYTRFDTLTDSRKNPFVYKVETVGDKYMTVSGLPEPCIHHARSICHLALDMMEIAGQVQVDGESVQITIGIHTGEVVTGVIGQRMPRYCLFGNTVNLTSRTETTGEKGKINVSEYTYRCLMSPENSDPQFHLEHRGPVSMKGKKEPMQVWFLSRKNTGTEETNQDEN
Test: Effect on a recombinant guanylate cyclase reporter cell line
Type: cell-based
Details: MEC = minimum effective concentration; in some cases mean values for individual determinations
Description: B-2. Effect on a Recombinant Guanylate Cyclase Reporter Cell Line
The cellular action of the compounds of the invention is determined using a recombinant guanylate cyclase reporter cell line, as described in F. Wunder et al., Anal. Biochem. 339, 104-112 (2005).
Representative MEC values (MEC=minimum effective concentration) for the compounds of the invention are shown in the table below (in some cases as mean values for individual determinations): […]

SMILES	MEC [µM]
Cc1nn(C)c(C)c1NC(=O)c1c(C)nc2c(OCc3c(F)cccc3F)cccn12 [Example 57, 8-[(2,6-Difluorobenzyl)oxy]-2-methyl-N-(1,3,5-trimethyl-1H-pyrazol-4-yl)imidazo[1,2-a]pyridine-3-carboxamide]	3.0
Cc1nc2c(OCc3c(F)cccc3F)cc(Cl)cn2c1C(=O)Nc1c(C(F)(F)F)nn(CCO)c1C [Example 117, 6-chloro-8-[(2,6-difluorobenzyl)oxy]-N-[1-(2-hydroxyethyl)-5-methyl-3-(trifluoromethyl)-1H-pyrazol-4-yl]-2-methylimidazo[1,2-a]pyridine-3-carboxamide]	0.1
Cc1nc2c(OCc3c(F)cccc3F)cccn2c1C(=O)Nc1ccc(Cl)c2ccccc12 [Example 62]	1.0
Cc1nn(C)c(N2CCOCC2)c1NC(=O)c1c(C)nc2c(OCc3c(F)cccc3F)cccn12 [Example 34, 8-[(2,6-difluorobenzyl)oxy]-N-[1,3-dimethyl-5-(morpholin-4-yl)-1H-pyrazol-4-yl]-2-methylimidazo[1,2-a]pyridine-3-carboxamide]	1.0
CCc1cc(NC(=O)c2c(C)nc3c(OCc4c(F)cccc4F)cccn23)ccn1 [Example 8]	0.1
Cc1nc2c(OCc3c(F)cccc3F)cc(Cl)cn2c1C(=O)Nc1ccnc2ccc(F)cc12 [Example 92]	0.1
Cc1nc2c(OCc3c(F)cccc3F)cc(Cl)cn2c1C(=O)Nc1cnn(C(C)C)c1 [Example 45, 6-chloro-8-[(2,6-difluorobenzyl)oxy]-N-(1-isopropyl-1H-pyrazol-4-yl)-2-methylimidazo[1,2-a]pyridine-3-carboxamide]	0.3
Cc1nc2c(OCc3c(F)cccc3F)cccn2c1C(=O)Nc1n[nH]c2ccc(F)cc12 [Example 115, 8-[(2,6-Difluorobenzyl)oxy]-N-(5-fluoro-1H-indazol-3-yl)-2-methylimidazo[1,2-a]pyridine-3-carboxamide]	1.0
Cc1nc2c(OCc3c(F)cccc3F)cccn2c1C(=O)Nc1cnn(CCN2CCS(=O)(=O)CC2)c1 [Example 129, 8-[(2,6-difluorobenzyl)oxy]-N-{1-[2-(1,1-dioxidothiomorpholin-4-yl)ethyl]-1H-pyrazol-4-yl}-2-methylimidazo[1,2-a] pyridine-3-carboxamide]	10
Cc1nn(S(C)(=O)=O)c(C)c1NC(=O)c1c(C)nc2c(OCc3c(F)cccc3F)cccn12 [Example 154, 8-[(2,6-Difluorobenzyl)oxy]-N-[3,5-dimethyl-1-(methylsulphonyl)-1H-pyrazol-4-yl]-2-methylimidazo[1,2-a]pyridine-3-carboxamide]	1.0
Cc1nc2c(OCc3c(F)cccc3F)cc(Cl)cn2c1C(=O)Nc1ccccc1CN [Example 104, N-[2-(Aminomethyl)phenyl]-6-chloro-8-[(2,6-difluorobenzyl)oxy]-2-methylimidazo[1,2-a]pyridine-3-carboxamide]	3.0
Cc1cc(OCC2CC(F)(F)C2)c2nc(C)c(C(=O)Nc3c(C)n[nH]c3C(F)(F)F)n2c1 [Example 151, 8-[(3,3-Difluorocyclobutyl)methoxy]-2,6-dimethyl-N-[3-methyl-5-(trifluoromethyl)-1H-pyrazol-4-yl]imidazo[1,2-a]pyridine-3-carboxamide]	3.0
Cc1ccc2ccccc2c1NC(=O)c1c(C)nc2c(OCc3c(F)cccc3F)cccn12 [Example 66]	0.1
Cc1cc(OCc2c(F)cccc2F)c2nc(C)c(C(=O)Nc3ccccc3CN)n2c1 [Example 112, N-[2-(Aminomethyl)phenyl]-8-[(2,6-difluorobenzyl)oxy]-2,6-dimethylimidazo[1,2-a]pyridine-3-carboxamide]	0.3
Cc1nc(NC(=O)c2c(C)nc3c(OCc4c(F)cccc4F)cccn23)oc1C [Example 144, 8-[(2,6-difluorobenzyl)oxy]-N-(4,5-dimethyl-1,3-oxazol-2-yl)-2-methylimidazo[1,2-a]pyridine-3-carboxamide]	3.0

Source: US20160362408A1 (Bayer Pharma Aktiengesellschaft, priority 2013, published 2016)
